# From patent US8952024B2, “Herbicidal pyrimidone derivatives” (E I du Pont de Nemours and Company, priority 2009, dated 2015)
# How the values were obtained:
# Assay in all cases: Test B pre-/postemergence plant response
# Assay type in all cases: in vivo
# [1] = tested on: Italian ryegrass (Lolium multiflorum); details: for Ryegrass, Italian plant response rating (0 to 100 scale): postemergence, 0 is no effect, 100 is complete control; for Plant response rating, Ryegrass, Italian: Postemergence
# Method in brief: (§1)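 Visually scored on a 0 to 100 scale after 13 to 15 days in greenhouse versus controls. Treatments were preemergence on seeded loam/sand soil and postemergence on 1- to 4-leaf plants.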
# [2] = tested on: Surinam grass (Brachiaria decumbens); details: for Plant response rating, Surinam Grass: Postemergence
# Method in brief: as §1
# corn (Zea mays) = details: for Corn plant response rating (0 to 100 scale): 0 is no effect
# Method in brief: as §1
# [3] = tested on: goosegrass (Eleusine indica); details: for Goosegrass plant response rating (0 to 100 scale): 0 is no effect
# Method in brief: as §1
# [4] = tested on: lambsquarters (Chenopodium album); details: for Lambsquarters plant response rating (0 to 100 scale): 0 is no effect
# Method in brief: as §1
# [5] = tested on: large crabgrass (Digitaria sanguinalis); details: for Crabgrass, Large plant response rating (0 to 100 scale): 0 is no effect
# Method in brief: as §1
# [6] = tested on: pigweed (Amaranthus retroflexus); details: for Pigweed plant response rating (0 to 100 scale): 0 is no effect
# Method in brief: as §1
# [7] = tested on: woolly cupgrass (Eriochloa villosa); details: for Cupgrass, Woolly plant response rating (0 to 100 scale): 0 is no effect
# Method in brief: as §1
# [8] = 125 g ai/ha, scale 0 to 100 (0 no effect, 100 complete control)
# [9] = 250 g ai/ha, scale 0 to 100 (0 no effect, 100 complete control)
# [10] = 31 g ai/ha, postemergence, scale 0 to 100, 0 is no effect, 100 is complete control
# [11] = 62 g ai/ha, postemergence, 100 is complete control, 13 to 15 days
# [12] = Postemergence, 125 g ai/ha, scale 0 to 100 (0 no effect, 100 complete control)
# [13] = Postemergence, 250 g ai/ha, scale 0 to 100 (0 no effect, 100 complete control)
# [14] = 31 g ai/ha, 0 to 100 scale (0 no effect, 100 complete control)
# [15] = 125 g ai/ha, scale 0 (no effect) to 100 (complete control), 13 to 15 days
# [16] = 250 g ai/ha, scale 0 to 100 (0 no effect, 100 complete control), 13 to 15 days
# [17] = 62 g ai/ha, scale 0 to 100 (0 no effect, 100 complete control)
# [18] = Postemergence, 31 g ai/ha, 0 to 100 scale (0 no effect, 100 complete control)
# [19] = Postemergence, 125 g ai/ha, scale 0 (no effect) to 100 (complete control), 13 to 15 days
# [20] = Postemergence, 250 g ai/ha, scale 0 to 100 (0 no effect, 100 complete control), 13 to 15 days
# [21] = Postemergence, 62 g ai/ha, scale 0 to 100 (0 no effect, 100 complete control)
smiles,measurement,setting,value
COCCn1c(-c2ccco2)ncc(C(=O)C2=C(O)CCCC2=O)c1=O [Compound 111],"Ryegrass, Italian plant response rating (0 to 100 scale)","[1]; 62 g ai/ha, 13 to 15 days",0
same,"Plant response rating, Ryegrass, Italian",[1]; [8],0
same,"Plant response rating, Ryegrass, Italian",[1]; [9],5
same,"Plant response rating, Surinam Grass",[2]; [8],70
same,"Plant response rating, Surinam Grass",[2]; [9],80
same,"Plant response rating, Corn",corn (Zea mays); [10],10
same,Corn plant response rating (0 to 100 scale),corn (Zea mays); [11],45
same,"Plant response rating, Corn",corn (Zea mays); [12],55
same,"Plant response rating, Corn",corn (Zea mays); [13],60
same,"Plant response rating, Goosegrass",[3]; [10],70
same,Goosegrass plant response rating (0 to 100 scale),[3]; [11],70
same,"Plant response rating, Goosegrass",[3]; [12],85
same,"Plant response rating, Goosegrass",[3]; [13],85
same,"Plant response rating, Lambsquarters",[4]; [10],98
same,Lambsquarters plant response rating (0 to 100 scale),[4]; [11],98
same,"Plant response rating, Lambsquarters",[4]; [12],100
same,"Plant response rating, Lambsquarters",[4]; [13],100
same,"Plant response rating, Crabgrass, Large",[5]; [10],70
same,"Crabgrass, Large plant response rating (0 to 100 scale)",[5]; [11],75
same,"Plant response rating, Crabgrass, Large",[5]; [12],80
same,"Plant response rating, Crabgrass, Large",[5]; [13],85
same,"Plant response rating, Pigweed",[6]; [10],95
same,Pigweed plant response rating (0 to 100 scale),[6]; [11],100
same,"Plant response rating, Pigweed",[6]; [12],100
same,"Plant response rating, Pigweed",[6]; [13],100
same,"Plant response rating, Cupgrass, Woolly",[7]; [10],40
same,"Cupgrass, Woolly plant response rating (0 to 100 scale)",[7]; [11],50
same,"Plant response rating, Cupgrass, Woolly",[7]; [12],75
same,"Plant response rating, Cupgrass, Woolly",[7]; [13],75
CCCCn1c(-c2ccccc2)ncc(C(=O)C2=C(O)C3CCC(C3)C2=O)c1=O (stereo not drawn) [Compound 240],"Plant response rating, Ryegrass, Italian",[1]; [14],10
same,"Plant response rating, Ryegrass, Italian",[1]; [15],40
same,"Plant response rating, Ryegrass, Italian",[1]; [16],40
same,"Plant response rating, Ryegrass, Italian",[1]; [17],15
same,"Plant response rating, Surinam Grass",[2]; [14],95
same,"Plant response rating, Surinam Grass",[2]; [15],100
same,"Plant response rating, Surinam Grass",[2]; [16],100
same,"Plant response rating, Surinam Grass",[2]; [17],98
same,"Plant response rating, Corn",corn (Zea mays); [18],90
same,"Plant response rating, Corn",corn (Zea mays); [19],100
same,"Plant response rating, Corn",corn (Zea mays); [20],100
same,"Plant response rating, Corn",corn (Zea mays); [21],95
same,"Plant response rating, Goosegrass",[3]; [18],95
same,"Plant response rating, Goosegrass",[3]; [19],98
same,"Plant response rating, Goosegrass",[3]; [20],98
same,"Plant response rating, Goosegrass",[3]; [21],98
same,"Plant response rating, Lambsquarters",[4]; [18],98
same,"Plant response rating, Lambsquarters",[4]; [19],100
same,"Plant response rating, Lambsquarters",[4]; [20],100
same,"Plant response rating, Lambsquarters",[4]; [21],100
same,"Plant response rating, Crabgrass, Large",[5]; [18],80
same,"Plant response rating, Crabgrass, Large",[5]; [19],100
same,"Plant response rating, Crabgrass, Large",[5]; [20],100
same,"Plant response rating, Crabgrass, Large",[5]; [21],98
same,"Plant response rating, Pigweed",[6]; [19],100
same,"Plant response rating, Pigweed",[6]; [20],100
same,"Plant response rating, Pigweed",[6]; [21],100
same,"Plant response rating, Cupgrass, Woolly",[7]; [18],98
same,"Plant response rating, Cupgrass, Woolly",[7]; [19],100
same,"Plant response rating, Cupgrass, Woolly",[7]; [20],100
same,"Plant response rating, Cupgrass, Woolly",[7]; [21],100
COCCn1c(-c2cccs2)ncc(C(=O)C2=C(O)CCCC2=O)c1=O [Compound 108],"Ryegrass, Italian plant response rating (0 to 100 scale)","[1]; 62 g ai/ha, 13 to 15 days",0
same,"Plant response rating, Ryegrass, Italian",[1]; [8],0
same,"Plant response rating, Ryegrass, Italian",[1]; [9],0
same,Surinam Grass plant response rating (0 to 100 scale),"[2]; 62 g ai/ha, postemergence, 0 is no effect, 100 is complete control, 13 to 15 days",60
same,"Plant response rating, Surinam Grass",[2]; [8],65
same,"Plant response rating, Surinam Grass",[2]; [9],80
same,"Plant response rating, Corn",corn (Zea mays); [10],15
same,Corn plant response rating (0 to 100 scale),corn (Zea mays); [11],35
same,"Plant response rating, Corn",corn (Zea mays); [12],50
same,"Plant response rating, Corn",corn (Zea mays); [13],65
same,"Plant response rating, Goosegrass",[3]; [10],60
same,Goosegrass plant response rating (0 to 100 scale),[3]; [11],70
same,"Plant response rating, Goosegrass",[3]; [12],75
same,"Plant response rating, Goosegrass",[3]; [13],85
same,"Plant response rating, Lambsquarters",[4]; [10],98
same,Lambsquarters plant response rating (0 to 100 scale),[4]; [11],98
same,"Plant response rating, Lambsquarters",[4]; [12],100
same,"Plant response rating, Lambsquarters",[4]; [13],100
same,"Plant response rating, Crabgrass, Large",[5]; [10],60
same,"Crabgrass, Large plant response rating (0 to 100 scale)",[5]; [11],70
same,"Plant response rating, Crabgrass, Large",[5]; [12],75
same,"Plant response rating, Crabgrass, Large",[5]; [13],85
same,"Plant response rating, Pigweed",[6]; [10],95
same,Pigweed plant response rating (0 to 100 scale),[6]; [11],98
same,"Plant response rating, Pigweed",[6]; [12],100
same,"Plant response rating, Pigweed",[6]; [13],100
same,"Plant response rating, Cupgrass, Woolly",[7]; [10],40
same,"Cupgrass, Woolly plant response rating (0 to 100 scale)",[7]; [11],60
same,"Plant response rating, Cupgrass, Woolly",[7]; [12],70
same,"Plant response rating, Cupgrass, Woolly",[7]; [13],75
